These results are taken from ChEMBL document CHEMBL5729615, “Inhibitors of protein arginine methyltransferase 5 (PRMT5), pharmaceutical products thereof, and methods thereof” (2023).

For this assay, the target named is PRMT5/MEP50 complex (Homo sapiens, UniProt O14744). Put plainly: 2.5 μL of compound solution in the assay buffer with 4% DMSO and 5 μL of PRMT5/MRP50 complex/SAM mixture solution in the assay buffer which was pre-incubated for 30 minutes were added into a white low volume 384 well microtiter plate. This mixture solution was incubated for 15 minutes with gentle shaking at room temperature. Methyl transfer reaction was initiated by adding 2.5 μL of Biotin-H4 (1-21) peptide substrate solution in the assay buffer. […] The reaction was allowed to perform for 120 minutes in dark with gentle shaking at room temperature after which 5 μL of Anti-H4R3-Me AlphaLISA acceptor beads in detection buffer from the manufacturer was added into the reaction mixture followed by incubation for 60 minutes. 10 μL of Streptavidin labeled AlphaLISA donor beads in detection buffer was added into the mixture followed by 30 minute incubation. Final acceptor and donor beads concentrations were 10 μg/mL. The class given is protein-complex assay.
Chain of PRMT5/MEP50 complex (O14744 whole entry): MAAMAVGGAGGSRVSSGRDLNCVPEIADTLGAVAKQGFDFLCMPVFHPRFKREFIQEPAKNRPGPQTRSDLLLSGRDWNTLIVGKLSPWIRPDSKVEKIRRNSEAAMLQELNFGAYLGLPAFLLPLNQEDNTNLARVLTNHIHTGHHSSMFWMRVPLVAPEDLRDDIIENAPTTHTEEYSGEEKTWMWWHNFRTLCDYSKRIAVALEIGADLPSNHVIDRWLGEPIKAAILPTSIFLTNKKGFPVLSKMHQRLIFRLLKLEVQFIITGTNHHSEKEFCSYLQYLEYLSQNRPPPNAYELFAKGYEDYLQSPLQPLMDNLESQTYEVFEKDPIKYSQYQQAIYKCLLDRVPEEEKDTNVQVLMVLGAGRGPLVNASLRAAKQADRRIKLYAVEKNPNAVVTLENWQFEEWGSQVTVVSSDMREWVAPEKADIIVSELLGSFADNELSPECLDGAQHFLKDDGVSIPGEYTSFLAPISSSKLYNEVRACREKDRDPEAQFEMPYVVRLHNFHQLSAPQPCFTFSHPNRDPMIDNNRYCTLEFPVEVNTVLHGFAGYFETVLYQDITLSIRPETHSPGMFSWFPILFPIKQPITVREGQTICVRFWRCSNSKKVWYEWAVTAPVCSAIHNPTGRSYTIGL
Chain of PRMT5/MEP50 complex (Q9BQA1 whole entry, further chain): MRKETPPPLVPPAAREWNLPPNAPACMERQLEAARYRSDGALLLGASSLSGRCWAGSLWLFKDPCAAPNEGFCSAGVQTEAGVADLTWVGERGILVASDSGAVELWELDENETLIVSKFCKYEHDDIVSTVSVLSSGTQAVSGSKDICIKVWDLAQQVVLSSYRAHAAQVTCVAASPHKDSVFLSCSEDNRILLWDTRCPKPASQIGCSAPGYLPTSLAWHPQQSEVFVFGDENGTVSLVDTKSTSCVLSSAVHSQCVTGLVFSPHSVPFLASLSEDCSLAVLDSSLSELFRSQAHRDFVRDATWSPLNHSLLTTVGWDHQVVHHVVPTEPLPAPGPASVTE

Consider `O=C1c2cc(NC3CCC3)ccc2CCN1CC(O)CN1CCc2ccccc2C1` (stereo unspecified), for which the 50% inhibitory concentration (IC50) came to 0.236 µM.
